In article PMC9669269 (Journal of Computational Chemistry, 2022):

Assays:
Experiment in all cases: HTRF displacement of biotinylated H4Ac4 peptide
Assay type in all cases: binding
[1] = molecular target: hBrd4 BD2 (Homo sapiens, UniProt O60885)
[2] = molecular target: T1, CaBD2 (CaBdf1 BD2) (Candida albicans, UniProt Q5A4W8)
T1 sequence (Q5A4W8 386-491): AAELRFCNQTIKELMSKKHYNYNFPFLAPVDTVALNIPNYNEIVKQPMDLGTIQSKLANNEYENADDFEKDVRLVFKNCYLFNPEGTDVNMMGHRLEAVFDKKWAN

[3] = molecular target: hBrd4 BD1 (Homo sapiens, UniProt O60885)
[4] = molecular target: T2, CaBD1 (CaBdf1 BD1) (Candida albicans, UniProt Q5A4W8)
T2 sequence (Q5A4W8 193-327): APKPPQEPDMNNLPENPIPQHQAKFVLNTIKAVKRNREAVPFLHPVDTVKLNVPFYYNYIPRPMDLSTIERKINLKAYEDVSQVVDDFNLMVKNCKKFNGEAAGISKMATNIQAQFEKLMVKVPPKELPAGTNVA

IC50 [1] | IC50 [2] | IC50 [3] | IC50 [4] | Structure (SMILES)
8.7 ± 1.8 µM | 6.3 ± 2.78 µM | 14.8 ± 6.9 µM | > 20 µM | Cc1ccc(Nc2c(-c3ccc(O)c(F)c3)nc3c(C)cccn23)cc1 [1a, 2‐Fluoro‐4‐(8‐methyl‐3‐(p‐tolylamino)imidazo[1,2‐a]pyridin‐2‐yl)phenol]
> 20 µM | 5.22 ± 2.12 µM | > 20 µM | > 20 µM | Cc1ccc(Nc2c(-c3ccc(O)cc3F)nc3c(C)cccn23)cc1 [1b, 3‐Fluoro‐4‐(8‐methyl‐3‐(p‐tolylamino)imidazo[1,2‐a]pyridin‐2‐yl)phenol]
> 20 µM | 0.78 ± 0.15 µM | > 20 µM | > 20 µM | Cc1ccc(Nc2c(-c3ccc(O)cc3)nc3c(C)cccn23)cc1O [1c, 5‐((2‐(4‐Hydroxyphenyl)‐8‐methylimidazo[1,2‐a]pyridin‐3‐yl)amino)‐2‐methylphenol]
2.24 ± 0.65 µM | 0.37 ± 0.09 µM | > 20 µM | > 20 µM | Cc1cccn2c(Nc3ccc(N)cc3)c(-c3ccc(O)cc3)nc12 [1h, 4‐(3‐([4‐Aminophenyl]amino)‐8‐methylimidazo[1,2‐a]pyridin‐2‐yl)phenol]
> 20 µM | 4.39 ± 1.04 µM | > 20 µM | > 20 µM | Cc1cccn2c(Nc3ccc([N+](=O)[O-])cc3)c(-c3ccc(O)cc3)nc12 [1j, 4‐(8‐Methyl‐3‐([4‐nitrophenyl]amino)imidazo[1,2‐a]pyridin‐2‐yl)phenol]
> 20 µM | 3.9 ± 0.35 µM | > 20 µM | > 20 µM | Cc1ccc(Nc2c(-c3ccc(O)cc3)nc3c(C)cccn23)cc1 [compound 1, imidazopyridine (1)]

Further lines, the molecule ahead of its results:

Structure (SMILES) | IC50 [1] | IC50 [2] | IC50 [3] | IC50 [4]
Cc1ccc(Nc2c(-c3ccc(O)cc3)nc3c(C)cccn23)c(O)c1 [1d, 2‐((2‐(4‐Hydroxyphenyl)‐8‐methylimidazo[1,2‐a]pyridin‐3‐yl)amino)‐5‐methylphenol] | > 20 µM | 9.74 ± 0.19 µM | > 20 µM | > 20 µM
Cc1ccc(Nc2c(-c3ccc(O)cc3)nc3c(Cl)cccn23)cc1 [1e, 4‐(8‐Chloro‐3‐(p‐tolylamino)imidazo[1,2‐a]pyridin‐2‐yl)phenol] | 16 ± 1.2 µM | 1.5 ± 0.42 µM | > 20 µM | > 20 µM
Cc1ccc(Nc2c(-c3ccc(O)cc3)nc3c(Br)cccn23)cc1 [1f, 4‐(8‐Bromo‐3‐(p‐tolylamino)imidazo[1,2‐a]pyridin‐2‐yl)phenol] | > 20 µM | 0.75 ± 0.25 µM | > 20 µM | > 20 µM
Cc1ccc(Nc2c(-c3ccc(O)cc3)nc3c(I)cccn23)cc1 [1g, 4‐(8‐Iodo‐3‐(p‐tolylamino)imidazo[1,2‐a]pyridin‐2‐yl)phenol] | > 20 µM | 1.01 ± 0.19 µM | > 20 µM | > 20 µM
Cc1cccn2c(Nc3ccc(Br)cc3)c(-c3ccc(O)cc3)nc12 [1i, 4‐(3‐([4‐Bromophenyl]amino)‐8‐methylimidazo[1,2‐a]pyridin‐2‐yl)phenol] | 12.8 ± 3.2 µM | 4.35 ± 0.63 µM | > 20 µM | > 20 µM
